Test results published in patent US4835150A, “Cephem compounds” (Beecham Group p.l.c., priority 1985, dated 1989).

Legend:
Type in all cases: cell-based
Proteus mirabilis C977 = assay: MIC by serial dilution in Iso-Sensitest Agar, P. mirabilis C977; settings: 24 h, overnight at 37° C.
Method: (§1) Minimum Inhibitory Concentration (MIC) values of compounds of the invention against P. mirabilis C977, S. marcescens US 32, and P. aeruginosa K79961 were determined by serial dilution in Iso-Sensitest Agar (from Oxiod Ltd., Basinstoke, England). The plates were inoculated with […] colony forming units and incubated overnight at 37° C. The MIC values recorded in Table 1 were the lowest concentration of antibiotic to inhibit growth. Comparative data for sodium 7β[2-(3,4-diacetoxyphenyl)-2-[(4-ethyl-2,3-dioxopiperazin-1yl)carbonylamino]acetomido]-7α-formamido-3-[(2-methyl-1,3,4-thiadiazol-5yl)thiomethyl]ceph-3em-4-carboxylate (Compound A), disclosed in European Patent Application No. 82303821.1 (Publication No. 0 071 395) are also given.

[1] = system: Serratia marcescens US 32; assay: MIC by serial dilution in Iso-Sensitest Agar, S. marcescens US 32; settings: US32, 24 h, overnight at 37° C.
Method: as §1

[2] = system: Pseudomonas aeruginosa K79961; assay: MIC by serial dilution in Iso-Sensitest Agar, P. aeruginosa K79961; settings: 24 h, overnight at 37° C.
Method: as §1

Row | SMILES | MIC (Proteus mirabilis C977) | MIC [1] | MIC [2]
1 | CCN1CCN(C(=O)NC(C(=O)N[C@]2(NC=O)C(=O)N3C(C(=O)O)=C(CSc4nnc(C)s4)CS[C@@H]32)c2ccc(OC(C)=O)c(OC(C)=O)c2)C(=O)C1=O (stereo partly drawn) [Compound A, sodium 7β[2-(3,4-diacetoxyphenyl)-2-[(4-ethyl-2,3-dioxopiperazin-1yl)carbonylamino]acetomido]-7α-formamido-3-[(2-methyl-1,3,4-thiadiazol-5yl)thiomethyl]ceph-3em-4-carboxylate, reference compound] | 4 µg/mL | 1 µg/mL | 2 µg/mL
2 | CCN1CCN(C(=O)N[C@@H](C(=O)N[C@]2(NC=O)C(=O)N3C(C(=O)O)=C(CSc4nncs4)CS[C@@H]32)c2ccc(OC(C)=O)c(OC(C)=O)c2)C(=O)C1=O [Example 1, Sodium 7β-[D-2-(3,4-Diacetoxyphenyl)-2-[(4-ethyl-2,3-dioxopiperazin-1-yl)carbonylamino]acetamido]-7α-formamido-3-[(1,3,4-thiadiazol-2-yl)thiomethyl]ceph-3-em-4-carboxylate] | 1 µg/mL | 0.25 µg/mL | 0.25 µg/mL
3 | CCN1CCN(C(=O)N[C@@H](C(=O)N[C@]2(NC=O)C(=O)N3C(C(=O)O)=C(CSc4nncs4)CS[C@@H]32)c2ccc(O)c(O)c2)C(=O)C1=O [Example 2, Sodium 7β-[D-2-(3,4-Dihydroxyphenyl)-2-[(4-ethyl-2,3-dioxopiperazin-1-yl)carbonylamino]acetamido]-7α-formamido-3-[(1,3,4-thiadiazol-2-yl)thiomethyl]ceph-3-em-4-carboxylate] | 1 µg/mL | 0.12 µg/mL | 0.5 µg/mL
